Read-outs that look alike come from different tables or passages of the source.
Columns and labels:
[1] = tested on: corneal neovascularization; assay: Off-label topical AVASTIN for corneal neovascularization using the scleral lens drug delivery system; format: in vivo
Excerpt: This study using AVASTIN® off-label, topically, to treat corneal neovascularization was repeated using the scleral lens drug delivery system. […] This therapeutic effect was achieved without BAK. Instead, the expanded pre-corneal tear film of the scleral lens drug delivery system provided adequate bioavailability of the drug without exposing the cornea to BAK.

[2] = tested on: corneal neovascularization; conditions: solution of 1% AVASTIN and 0.01% BAK, one drop, four times per day for at least thirty days, topical drops; cited from earlier work

bevacizumab [AVASTIN®]
therapeutic effect on corneal neovascularization ([1]; one drop of 1% AVASTIN added to expanded pre-corneal tear film of artificial tears in scleral lens twice per day, without BAK, by thirty days, continued benefit over subsequent sixty days): achieved a therapeutic effect by thirty days with continued benefit over the subsequent sixty days
regression of corneal neovascularization (clinical photos, FIG. 5) ([1]; scleral lens drug delivery system): regression of corneal neovascularization
therapeutic effect on corneal neovascularization [2]: Therapeutic effect was reported
